Article PMC11432795, “Mutagenesis of the Peptide Inhibitor of ASIC3 Channel Introduces Binding to Thumb Domain of ASIC1a but Reduces Analgesic Activity” (Marine Drugs, 2024)
Positions of bridges follow the written chain, without caps; N, C: chain ends. Residues, ends and D or L forms follow the SMILES beside them.

Experiments:
rat ASIC1b channel = experiment: Two-electrode voltage clamp, rat ASIC1b in X. laevis oocytes; type: cell-based; details: 30 s preapplication, activated at pH 5.5
Method: (§1) A small portion of the ovary was isolated from frogs under anesthesia induced by a 0.17% solution of procaine methanesulphonate (MS222) (Sigma), followed by treatment with collagenase (1 mg/mL) at room temperature for 2 h. Oocytes at stages IV and V, devoid of follicular membranes, were transferred to ND-96 medium (containing 96 mM NaCl, 5 mM HEPES, 2 mM KCl, 1.8 mM CaCl2, 1 mM MgCl2, pH 7.4). mRNA synthesis was performed from pcDNA3.1 vectors (Invitrogen, Carlsbad, CA, USA) containing the rat ASIC3 gene, as well as pCI vectors containing genes for rat ASIC1a, its mutant analogues, and ASIC1b. mRNA (2.5–10 ng) was then injected into the oocytes. For the ASIC1a/3 heteromeric channels, the mRNA encoding the ASIC1a and ASIC3 subunits were injected in a 1:5 ratio, respectively. Subsequently, the oocytes were incubated for 2–3 days at a temperature of 17–19 °C in ND96 medium supplemented with gentamicin and streptomycin (20 µg/mL each).
Whole-cell electrophysiological recordings of ASIC channels were conducted using a two-electrode voltage-clamp setup. Microelectrodes were filled with 3 M KCl. Recordings from oocytes were carried out at a holding potential of −50 mV, with data filtered at 10 Hz and sampled at a rate of 100 Hz using an L780M ADC (LCard, Moscow, Russia). […]

[1] = molecular target: T1, rat ASIC1a/3 heteromeric channels (Rattus norvegicus, UniProt O35240+P55926); experiment: Two-electrode voltage clamp, rat ASIC1a/3 heteromeric channels in X. laevis oocytes; type: cell-based
T1 construct: expressed in transfected cells; host or cells: Xenopus laevis oocytes co-injected with ASIC1a and ASIC3 mRNA (1:5)
T1 sequence (P55926 1-526): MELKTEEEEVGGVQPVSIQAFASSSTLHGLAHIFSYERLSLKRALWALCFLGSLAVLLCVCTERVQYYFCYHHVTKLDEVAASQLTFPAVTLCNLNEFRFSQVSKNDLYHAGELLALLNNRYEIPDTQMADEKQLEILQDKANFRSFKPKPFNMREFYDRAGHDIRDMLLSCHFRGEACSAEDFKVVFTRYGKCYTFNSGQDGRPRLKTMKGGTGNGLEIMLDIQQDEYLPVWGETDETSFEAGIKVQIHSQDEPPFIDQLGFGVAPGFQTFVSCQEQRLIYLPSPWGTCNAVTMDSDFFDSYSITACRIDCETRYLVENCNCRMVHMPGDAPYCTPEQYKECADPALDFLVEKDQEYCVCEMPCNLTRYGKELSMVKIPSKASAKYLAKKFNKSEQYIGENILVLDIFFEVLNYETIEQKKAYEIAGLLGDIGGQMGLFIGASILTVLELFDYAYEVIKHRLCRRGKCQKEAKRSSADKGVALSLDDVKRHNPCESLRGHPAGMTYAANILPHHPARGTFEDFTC
T1 sequence (O35240 1-533): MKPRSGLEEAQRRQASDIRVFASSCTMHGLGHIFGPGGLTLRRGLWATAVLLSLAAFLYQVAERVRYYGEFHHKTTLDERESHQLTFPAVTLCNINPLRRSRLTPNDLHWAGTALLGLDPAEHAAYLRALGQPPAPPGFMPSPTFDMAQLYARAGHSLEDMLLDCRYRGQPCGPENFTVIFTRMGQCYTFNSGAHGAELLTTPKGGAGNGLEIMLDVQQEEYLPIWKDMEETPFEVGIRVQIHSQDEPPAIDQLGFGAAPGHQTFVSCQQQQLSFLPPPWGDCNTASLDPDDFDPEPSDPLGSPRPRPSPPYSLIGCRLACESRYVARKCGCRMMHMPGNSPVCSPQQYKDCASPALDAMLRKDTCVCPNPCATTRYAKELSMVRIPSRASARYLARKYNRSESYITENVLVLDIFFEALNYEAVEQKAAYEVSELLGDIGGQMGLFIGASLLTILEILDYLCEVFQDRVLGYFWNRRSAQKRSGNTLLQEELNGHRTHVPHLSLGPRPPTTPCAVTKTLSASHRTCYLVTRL
Excerpt: Figure 4 The effect of the mutant peptide A23K on rat heteromeric ASIC1a/3 channels. […] The depicted currents were induced by a pH 5.5 stimulus following a conditioning pH of 7.4, with the peptide applied for 30 s before the pH stimulus. (B) Dose–response curve for the inhibitory effect of the mutant peptide. Each data point represents data from 6 cells. Data are presented as mean ± S.E.M.
as §1
Whole-cell electrophysiological recordings of ASIC channels were conducted using a two-electrode voltage-clamp setup. Microelectrodes were filled with 3 M KCl. Recordings from oocytes were carried out at a holding potential of −50 mV, with data filtered at 10 Hz and sampled at a rate of 100 Hz using an L780M ADC (LCard, Moscow, Russia). The synchronized delivery of solutions into the chamber and recording of electrophysiological results were carried out using in-house software v.2. Activation of ASIC channels occurred through rapid pH changes in the solution, achieved by replacing the working solution in the chamber with ND96-based solutions at varying pH levels. Specifically, HEPES was substituted with 10 mM MES for pH 5.5–6.5 and MOPS for pH 6.7–7.0.
Fresh peptide solutions were meticulously prepared in ND96 buffer with a pH of 7.43 immediately before experiments, with strict control over the pH levels. Peptides were applied for 30 s at a conditioning pH of 7.43 before acid stimulation of the channel. The interval between applications was maintained at a minimum of 1.5 to 2 min.
Electrophysiological data analysis was conducted using OriginPro 2018 software (OriginLab, Northampton, MA, USA). Dose–response relationships for Ugr9a-1, S16K, and A23K peptides were fitted using a Hill function: F1(x) = A − A/(1 + (x/IC50)^nH), where F1(x) represents the amplitude of the current at concentration x of the peptide, A is the maximum amplitude of the current, IC50 is the half-maximum inhibitory concentration of the peptide, and nH is the Hill coefficient.

ASIC3 channels = details: ref [18],[19],[20]; cited from earlier work
Excerpt: The 29-amino acid peptide Ugr9a-1, isolated from the venom of the northern sea anemone Urticina grebelnyi, represents a structural class of toxins termed “boundless β-hairpin”.

[2] = cited from earlier work
Excerpt: Selective ligands targeting specific ASIC isoforms are invaluable for structural and functional investigations. Peptide ligands sourced from various animal venoms have emerged as such tools. […] Bot ... || The 29-amino acid peptide Ugr9a-1, isolated from the venom of the northern sea anemone Urticina grebelnyi, represents a structural class of toxins termed “boundless β-hairpin”. […] While the significant involvement of ASIC3 channels in acid-induced, chronic neuropathic and inflammatory pain has been extensively reported, the role of ASIC1a remains less clear.

SMILES	effect on rat ASIC1b channel at 50 µM (rat ASIC1b channel)	inhibitory effect on heteromeric channels compared to homomeric ASIC1a ([1]; ASIC1a/3 versus homomeric ASIC1a)	inhibitory effect on heteromeric channels compared to homomeric ASIC3 ([1]; ASIC1a/3 versus homomeric ASIC3)	nH ([1]; inhibition of rat ASIC1a/3, pH 5.5 stimulus, conditioning pH 7.4, mean ± S.E.M., 6 cells)	IC50 ([1]; rat ASIC1a/3 heteromer, X. laevis oocytes (mRNA 1:5), pH 5.5 stimulus, conditioning pH 7.4, peptide 30 s, mean ± S.E.M., 6 cells) [µM]	wash procedure required to restore ASIC1a/3 function ([1]; washout after peptide)	modulation of ASIC3 channels (ASIC3 channels)	effect on acid-induced and inflammatory pain ([2]; mouse models, ref [18],[19],[20])	effect on acid-induced and CFA-induced inflammatory pain ([2]; range of doses, ref [18],[20])
CC[C@H](C)[C@H](N)C(=O)N[C@@H](CO)C(=O)N[C@H](C(=O)N[C@@H](CC(=O)O)C(=O)N1CCC[C@H]1C(=O)N1CCC[C@H]1C(=O)N[C@H]1CSSC[C@@H]2NC(=O)[C@H](CC(N)=O)NC(=O)CNC(=O)[C@H](CO)NC(=O)CNC(=O)[C@H](CC(=O)O)NC(=O)[C@H](CCCNC(=N)N)NC(=O)[C@H](Cc3c[nH]cn3)NC(=O)[C@H](Cc3ccc(O)cc3)NC(=O)[C@H](CSSC[C@@H](C(=O)NCC(=O)N[C@@H](C)C(=O)N[C@H](C(=O)O)C(C)C)NC(=O)CNC(=O)[C@H](Cc3ccc(O)cc3)NC(=O)[C@H](CCCCN)NC(=O)[C@H](CC(=O)O)NC(=O)[C@H](Cc3ccc(O)cc3)NC(=O)[C@H](C(C)C)NC2=O)NC(=O)[C@H](Cc2ccccc2)NC(=O)[C@H](CCCNC(=N)N)NC1=O)[C@@H](C)CC [A23K] (H-ISIDPPCRFCYHRDGSGNCVYDKYGCGAV-OH; disulfide 7-19, 10-26)	Lack of effect	approximately 1.6 -fold	~2.2 -fold	1.6 ± 0.2	4.2 ± 0.6	extended wash procedure required to restore ASIC1a/3 function	–	–	–
CC[C@H](C)[C@H](N)C(=O)N[C@@H](CO)C(=O)N[C@H](C(=O)N[C@@H](CC(=O)O)C(=O)N1CCC[C@H]1C(=O)N1CCC[C@H]1C(=O)N[C@H]1CSSC[C@@H]2NC(=O)[C@H](CC(N)=O)NC(=O)CNC(=O)[C@H](CO)NC(=O)CNC(=O)[C@H](CC(=O)O)NC(=O)[C@H](CCCNC(=N)N)NC(=O)[C@H](Cc3c[nH]cn3)NC(=O)[C@H](Cc3ccc(O)cc3)NC(=O)[C@H](CSSC[C@@H](C(=O)NCC(=O)N[C@@H](C)C(=O)N[C@H](C(=O)O)C(C)C)NC(=O)CNC(=O)[C@H](Cc3ccc(O)cc3)NC(=O)[C@H](C)NC(=O)[C@H](CC(=O)O)NC(=O)[C@H](Cc3ccc(O)cc3)NC(=O)[C@H](C(C)C)NC2=O)NC(=O)[C@H](Cc2ccccc2)NC(=O)[C@H](CCCNC(=N)N)NC1=O)[C@@H](C)CC [Ugr9-1] (H-ISIDPPCRFCYHRDGSGNCVYDAYGCGAV-OH; disulfide 7-19, 10-26)	–	–	–	–	–	–	selectively modulates ASIC3 channels	promising results in mitigating acid-induced and inflammatory pain	attenuates acid-induced and CFA-induced inflammatory pain in mice across a range of doses
